Results taken from ChEMBL document CHEMBL5523672, “Thiazol-4(5H)-one analogs as potent tyrosinase inhibitors: Synthesis, tyrosinase inhibition, antimelanogenic effect, antioxidant activity, and in silico docking simulation” (Bioorg Med Chem, 2024).
Calls of active or inactive are those of the source. No cut-off for these calls is given here.

Legend:
[1] = Antioxidant activity assessed as ROS scavenging activity at 40 uM incubated for 30 mins under dark condition in presence of SIN-1 by microplate reader assay; format: functional
Mushroom tyrosinase [2] = target: T1, Mushroom tyrosinase (Agaricus bisporus, UniProt O42713+Q00024+C7FF04+C7FF05); assay: Inhibition of mushroom tyrosinase using L-tyrosine as substrate incubated for 30 mins by microplate reader assay; format: protein assay
Mushroom tyrosinase [3] = target: T1, Mushroom tyrosinase; assay: Inhibition of mushroom tyrosinase using L-DOPA as substrate incubated for 30 mins by microplate reader assay; format: protein assay
[4] = Antioxidant activity assessed as ABTS radical scavenging activity at 100 uM measured at 1 min interval for 10 mins by microplate reader analysis; format: functional
[5] = Antioxidant activity assessed as DPPH radical scavenging activity at 500 uM incubated for 30 mins under dark condition by microplate reader assay; format: functional
B16-F10 [6] = assay: Antimelanogenic activity against IBMX/[…] stimulated mouse B16-F10 cells assessed as reduction in intracellular melanin production preincubated for 1 hr followed by IBMX/[…] addition and measured after 72 hrs by microplate reader assay; format: functional, cell-based; details: dose 5-20 µM, time 73.0 hrs
[7] = target: T2, Mushroom tyrosinase (Agaricus bisporus) (UniProt O42713+Q00024+C7FF04+C7FF05); assay: Potency index, ratio of kojic acid IC50 to test compound IC50 for inhibition of mushroom tyrosinase using L-Dopa as substrate; format: protein assay
[8] = target: T2, Mushroom tyrosinase (Agaricus bisporus); assay: Mixed type inhibition of mushroom tyrosinase at 3 to 12 uM using varying levels of L-DOPA as substrate by Lineweaver-Burk plot analysis; format: protein assay; details: dose 3-12 µM
[9] = target: T2, Mushroom tyrosinase (Agaricus bisporus); assay: Potency index, ratio of kojic acid IC50 to test compound IC50 for inhibition of mushroom tyrosinase using L-Tyrosine as substrate; format: protein assay
B16-F10 [10] = assay: Cytotoxicity against mouse B16-F10 cells upto 20 uM incubated for 72 hrs by EZ-Cytox method; format: toxicity, cell-based; details: b16-f10, 72 h
[11] = target: T3, Tyrosinase (Mus musculus) (UniProt P11344); assay: Inhibition of tyrosinase activity in IBMX/[…] stimulated mouse B16-F10 cells preincubated for 1 hr followed by IBMX/[…] addition and measured after 72 hrs by microplate reader assay; format: cell-based; details: dose 5-20 µM, time 73.0 hrs
T3 sequence (whole entry): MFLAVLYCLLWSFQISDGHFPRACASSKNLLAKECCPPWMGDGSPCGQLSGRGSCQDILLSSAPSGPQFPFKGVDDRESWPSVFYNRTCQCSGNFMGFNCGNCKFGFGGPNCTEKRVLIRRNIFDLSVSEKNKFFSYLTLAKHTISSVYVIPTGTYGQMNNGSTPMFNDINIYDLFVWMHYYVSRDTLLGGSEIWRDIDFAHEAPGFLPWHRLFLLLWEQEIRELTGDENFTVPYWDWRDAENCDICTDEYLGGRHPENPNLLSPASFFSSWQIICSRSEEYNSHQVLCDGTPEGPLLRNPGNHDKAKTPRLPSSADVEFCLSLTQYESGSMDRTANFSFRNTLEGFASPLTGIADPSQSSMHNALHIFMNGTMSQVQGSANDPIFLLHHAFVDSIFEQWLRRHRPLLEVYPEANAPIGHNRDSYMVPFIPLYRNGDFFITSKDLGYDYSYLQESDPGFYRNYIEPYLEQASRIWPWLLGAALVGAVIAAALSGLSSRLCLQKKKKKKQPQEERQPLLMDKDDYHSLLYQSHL

Mushroom tyrosinase [12] = target: T1, Mushroom tyrosinase; assay: Inhibition of mushroom tyrosinase using varying levels of L-DOPA as substrate by Dixon plot analysis; format: protein assay
[13] = target: T2, Mushroom tyrosinase (Agaricus bisporus); assay: Competitive inhibition of mushroom tyrosinase assessed as increase in Km with constant Vmax at 25 to 100 uM using varying levels of L-DOPA as substrate by Lineweaver-Burk plot analysis; format: protein assay; details: dose 25-100 µM

IC50 (Mushroom tyrosinase [2]) [µM] | IC50 (Mushroom tyrosinase [3]) [µM] | Ratio IC50 [7] | inhibition [8] | Ratio IC50 [9] | inhibition [11] | Ki (Mushroom tyrosinase [12]) [µM] | inhibition [13] | SMILES | Activity [1] | Activity [4] | Activity [5] | Activity (B16-F10 [6]) | Activity (B16-F10 [10])
> 200 | > 200 |  |  |  |  |  |  | COc1ccc(/C=C2\SC(NCc3ccc(OC)cc3)=NC2=O)cc1 | Active | inactive | inactive |  | 
2.1 | 0.4 | 19 | Active | 26 | Dose-Dependent Effect | 1.1 |  | COc1ccc(CNC2=NC(=O)/C(=C/c3ccc(O)cc3O)S2)cc1 | inactive | 90% | > 80% | Dose-Dependent Effect | Non-Toxic
> 200 | > 200 |  |  |  |  |  |  | COc1ccc(CNC2=NC(=O)/C(=C/c3cc(OC)c(O)c(OC)c3)S2)cc1 | inactive | 41% |  |  | 
 |  |  |  |  |  |  |  | O=C1O[C@H]([C@@H](O)CO)C(O)=C1O |  |  | 96% |  | 
> 200 | 179.2 |  |  |  |  |  |  | COc1ccc(CNC2=NC(=O)/C(=C/c3ccc(F)cc3F)S2)cc1 | inactive | inactive | inactive |  | 
> 200 | 29.2 |  |  |  |  |  |  | COc1ccc(CNC2=NC(=O)/C(=C/c3ccc(O)cc3)S2)cc1 |  |  | inactive |  | 
> 200 | > 200 |  |  |  |  |  |  | COc1ccc(CNC2=NC(=O)/C(=C/c3cc(OC)c(OC)c(OC)c3)S2)cc1 | Active | inactive | inactive |  | 
107.9 | 13 |  |  |  | Dose-Dependent Effect | 65.83 | Active | COc1ccc(CNC2=NC(=O)/C(=C/c3ccc(OC)c(O)c3)S2)cc1 | inactive | 41% |  | Dose-Dependent Effect | Non-Toxic
> 200 | 79.5 |  |  |  |  |  |  | COc1ccc(CNC2=NC(=O)/C(=C/c3ccc(F)c(F)c3)S2)cc1 | inactive | inactive | inactive |  | 
174.2 | 98.5 |  |  |  |  |  |  | CCOc1cc(/C=C2\SC(NCc3ccc(OC)cc3)=NC2=O)ccc1O | inactive | 41% | > 80% |  | 
> 200 | 136 |  |  |  |  |  |  | COc1ccc(CNC2=NC(=O)/C(=C/c3ccc(OC)c(OC)c3)S2)cc1 | Active | inactive | inactive |  | 
> 200 | 146.4 |  |  |  |  |  |  | COc1ccc(CNC2=NC(=O)/C(=C/c3ccc(OC)cc3OC)S2)cc1 | Active | inactive | inactive |  | 
> 200 | 105.1 |  |  |  |  |  |  | COc1ccc(CNC2=NC(=O)/C(=C/c3ccc(O)c(O)c3)S2)cc1 | Active | 75% | 100% |  | 
29.4 | 78.1 |  |  |  |  |  |  | COc1ccc(CNC2=NC(=O)/C(=C/c3ccc(O)c(OC)c3)S2)cc1 | inactive | 41% | 93% |  | 
 |  |  |  |  |  |  |  | Cc1c(C)c2c(c(C)c1O)CCC(C)(C(=O)O)O2 (stereo unspecified) | Active | 99.9% |  |  | 
> 200 | 100.9 |  |  |  |  |  |  | COc1ccc(CNC2=NC(=O)/C(=C/c3cc(C(C)(C)C)c(O)c(C(C)(C)C)c3)S2)cc1 | inactive | 41% | > 80% |  | 
